Experimental data as given in patent US20260007666A1 (INAYA THERAPEUTICS, INC., priority 2022, published 2026).

Test: Rat pharmacokinetics, IV imatinib mesylate vs IT imatinib free base/cyclodextrin (Example 9)
Type: in vivo, Sprague Dawley rats
Settings: IV data, 60 min collection period
Procedure: Lung tissue and blood were collected for analysis.
Experimental Design and Execution: In brief, after the animals were transferred to study, all animals were randomly assigned to treatment groups per the study design below. Animals were treated either via intravenous (IV) administration of formulation R1, or via intratracheal (IT) administration for formulation R2 of the test article.
Averages for each time point are reported for groups/time points that have a minimum of 2 animals.
The Therapeutic Advantage (Rd) in Table 8 was calculated using the following equation: […]

## Cc1ccc(NC(=O)c2ccc(CN3CCN(C)CC3)cc2)cc1Nc1nccc(-c2cccnc2)n1 [imatinib free base, imatinib]
  tissue distribution lung vs plasma: preferentially accumulates in the lung tissue
